The text below walks through data of ChEMBL document CHEMBL1135708, “Synthesis of 1-(3,4-dihydroxy-5-nitrophenyl)-2-phenyl-ethanone and derivatives as potent and long-acting peripheral inhibitors of catechol-O-methyltransferase” (J Med Chem, 2002).

Test [1] concerns the target T1, Catechol O-methyltransferase (Rattus norvegicus) (UniProt P22734).
T1 sequence (whole entry): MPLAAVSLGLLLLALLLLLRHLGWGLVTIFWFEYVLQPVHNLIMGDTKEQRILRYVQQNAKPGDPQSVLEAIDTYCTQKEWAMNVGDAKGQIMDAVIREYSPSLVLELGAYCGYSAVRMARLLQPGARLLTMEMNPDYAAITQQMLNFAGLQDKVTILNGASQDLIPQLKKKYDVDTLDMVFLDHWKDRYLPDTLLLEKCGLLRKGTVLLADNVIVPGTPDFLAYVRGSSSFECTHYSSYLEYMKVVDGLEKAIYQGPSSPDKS
The test is described as follows: Percent inhibition of Catechol O-methyltransferase activity in rat brain at dose of 30 mg/kg determined at 6 h after its administration. Details: dose 30 mg/kg. Format: organism-based.

In test [2] the target is T1, Catechol O-methyltransferase (Rattus norvegicus). In words: Percent inhibition of Catechol O-methyltransferase activity in rat liver at dose of 30 mg/kg determined at 6 hr after its administration. Set-up: dose 30 mg/kg. Format: organism-based.

Take `CC(=O)Oc1cc(C(=O)Cc2ccccc2[N+](=O)[O-])cc([N+](=O)[O-])c1OC(C)=O`: the inhibition in test [1] was 20%; in test [2], 28%.

For `CC(=O)Oc1cc(C(=O)C(C)(C)c2ccccc2)cc([N+](=O)[O-])c1OC(C)=O`, the inhibition in test [1] was 23%; in test [2], 19%.

Turning to `O=C(Cc1ccc(-c2ccccc2)cc1)c1cc(O)c(O)c([N+](=O)[O-])c1`, the inhibition in test [1] was found to be 28%; in test [2] it was 78%.

For `O=C(c1cc(O)c(O)c([N+](=O)[O-])c1)C(c1ccccc1)c1ccccc1`, the values for the inhibition in test [1] and in test [2] were 7% and 13%, respectively.

As to `Cc1ccc(CC(=O)c2cc(O)c(O)c([N+](=O)[O-])c2)cc1`, the inhibition in test [1] was 23%; in test [2] it was 83%.

Regarding `CC(=O)Oc1cc(C(=O)Cc2ccc([N+](=O)[O-])cc2)cc([N+](=O)[O-])c1OC(C)=O`, the inhibition in test [1] amounted to 0%; in test [2] it was 49%.

For the compound `O=C(Cc1cccc2ccccc12)c1cc(O)c(O)c([N+](=O)[O-])c1`, the inhibition was 10% in test [1] and 70% in test [2].

`O=[N+]([O-])c1cc(CCc2ccccc2)cc(O)c1O`: the inhibition in test [1] worked out at 10%; in test [2], 0%.

Consider `O=C(Cc1ccc2ccccc2c1)c1cc(O)c(O)c([N+](=O)[O-])c1`, for which the inhibition in test [1] stood at 17%; in test [2], 83%.

As for `O=[N+]([O-])c1cc(/C(Cc2ccccc2)=N\O)cc(O)c1O`, the values for the inhibition in test [1] and in test [2] were 13% and 48%, respectively.

Take `COc1ccc(CC(=O)c2cc(OC(C)=O)c(OC(C)=O)c([N+](=O)[O-])c2)cc1`: the inhibition was 25% in test [1] and 72% in test [2].

For the compound `CC(=O)Oc1cc(C(=O)C2(c3ccccc3)CCCCC2)cc([N+](=O)[O-])c1OC(C)=O`, the figures for the inhibition in test [1] and in test [2] were 19% and 14%, respectively.

Turning to `O=C(CC1CCCCC1)c1cc(O)c(O)c([N+](=O)[O-])c1`, the inhibition in test [1] was 39%; in test [2] it was 72%.

In the case of `O=C(Cc1ccccc1C(=O)O)c1cc(O)c(O)c([N+](=O)[O-])c1`, the inhibition in test [1] amounted to 34%; in test [2], 39%.

On to `CC(=O)Oc1cc(C(=O)C(C)c2ccccc2)cc([N+](=O)[O-])c1OC(C)=O` (stereo not given), for which the inhibition in test [1] was found to be 44%; in test [2], 42%.

In the case of `O=C(Cc1ccc(Cl)cc1)c1cc(O)c(O)c([N+](=O)[O-])c1`, the inhibition in test [1] amounted to 12%; in test [2] it was 69%.

Turning to `O=c1oc(-c2cc(O)c(O)c([N+](=O)[O-])c2)cc2ccccc12`, the values for the inhibition in test [1] and in test [2] were 29% and 15%, respectively.

For the compound `CC(=O)Oc1cc(C(=O)C(Br)c2ccccc2)cc([N+](=O)[O-])c1OC(C)=O` (stereo not given), the inhibition was 20% in test [1] and 48% in test [2].

As to `Cc1ccccc1CC(=O)c1cc(O)c(O)c([N+](=O)[O-])c1`, the values for the inhibition in test [1] and in test [2] were 33% and 74%, respectively.

As for `CC(=O)Oc1cc(C(=O)C(Cc2ccccc2)c2ccccc2)cc([N+](=O)[O-])c1OC(C)=O` (stereo not given), the figures for the inhibition in test [1] and in test [2] were 44% and 63%, respectively.

As a reminder, the inhibition is the percentage by which the read-out fell short of the control.
